Measurements published in PMC7793531 (International Journal of Molecular Sciences, 2020).
pIC50: −log10 of the molar value. Read-outs that look alike come from different tables or passages of the source. One block for each compound: values may come before it. Non-standard residues stand in square brackets, D forms with d. Residues, ends and D or L forms follow the SMILES beside them. ξ: configuration not given here. Oic(3aξ,7aξ) = O=C(O)[C@@H]1CC2CCCCC2N1; hArg = N=C(N)NCCCC[C@H](N)C(=O)O; Dab = NCC[C@H](N)C(=O)O

Tests used:
[1] = system: NRP-1 expression on MDA-MB-231 breast cancer cells; experiment: Labelled urea-peptide hybrid binding assay at 37 °C, time course of NRP-1 cell surface expression (FACS); assay type: cell-based, human
Protocol: Usually, in the presence of its natural ligand, a transmembrane receptor at the cell surface may induce signaling, internalization of complex and recycling at the cell surface. […] Thus, to identify the mechanism of action of the hybrid 10 on the NRP-1 expression on cells, we followed its expression after a time course exposure of cells at 37 °C. […] This intriguing result focused our attention on tracking the level of expression intensity of NRP-1 on the surfaced of MDA-MB-231 cells exposed on compound 10. […] The median fluorescent intensity after 1 h (T60) of cell exposure on hybrid 10 was 1.5-fold higher than after 5 min of incubation (Figure 7b). […] This hypothesis is strengthened here, since MDA-MB-231 expressed a large amount of NRP-1 at the cell surface, but also had plenty of the cytoplasmic counterpart, reaching a maximum of median fluorescence intensity higher than the restricted level of NRP-1 expression at the surface (Figure 7c).
(§1) Cells were harvested using a mix of EDTA/Trypsin buffer (Invitrogen, France) to detach cells from plastic after 5 min exposure at 37 °C. […] After washing with PBS containing 2% FCS, stained cells were analyzed using BD FACSCalibur^TM (San Jose, CA, USA) and FlowJo^TM cell analysis software (FlowJo LLC, Ashland, OR, USA). […]

[2] = system: NRP-1-positive breast cancer cells (MDA-MB-231); experiment: Labelled urea-peptide hybrid binding assay at 4 °C on cells (FACS), with NRP-1 co-staining; assay type: cell-based, human
Excerpt: VEGF-A165 binds to cell-surface NRP-1 on endothelial cells, effectively reducing surface levels of this receptor, promoting complex internalization and possibly inducing biological effects. Based on this mechanism, peptide carriers for selective drug delivery, such as iRGD peptides, have been recently disclosed. The iRGDs are used to selectively address potential therapeutic agents, e.g., doxorubicin or siRNAs inside malignant cells. We tested our tagged urea–peptide hybrid’s ability to bind human NRP-1-positive breast cancer cells (MDA-MB-231), which expressed large amount of NRP-1 at the cell surface (Figure 6a). A broad range of concentrations between 0 to 100 µg/mL of compound 10 was used to show its binding capacity on cells using fluorescence-activated cell sorting (FACS). […] To follow the impact of the ligation of this peptidomimetic on NRP-1 expression, we verified whether hybrid 10 binding interferes with the antibody used to detect NRP-1. […]
as §1

[3] = molecular target: T1, VEGF-A165/NRP-1 complex (Homo sapiens, UniProt O14786); experiment: Competitive ELISA-like assay, inhibition of bt-VEGF-A165 binding to immobilized NRP-1; details: recombinant human NRP-1, bt-VEGF-A165, chemiluminescence; read-out: IC50, VEGF-A165/NRP-1 complex inhibitory effect
T1 construct: purchased R&D Systems
T1 sequence (O14786 22-641 limits assumed): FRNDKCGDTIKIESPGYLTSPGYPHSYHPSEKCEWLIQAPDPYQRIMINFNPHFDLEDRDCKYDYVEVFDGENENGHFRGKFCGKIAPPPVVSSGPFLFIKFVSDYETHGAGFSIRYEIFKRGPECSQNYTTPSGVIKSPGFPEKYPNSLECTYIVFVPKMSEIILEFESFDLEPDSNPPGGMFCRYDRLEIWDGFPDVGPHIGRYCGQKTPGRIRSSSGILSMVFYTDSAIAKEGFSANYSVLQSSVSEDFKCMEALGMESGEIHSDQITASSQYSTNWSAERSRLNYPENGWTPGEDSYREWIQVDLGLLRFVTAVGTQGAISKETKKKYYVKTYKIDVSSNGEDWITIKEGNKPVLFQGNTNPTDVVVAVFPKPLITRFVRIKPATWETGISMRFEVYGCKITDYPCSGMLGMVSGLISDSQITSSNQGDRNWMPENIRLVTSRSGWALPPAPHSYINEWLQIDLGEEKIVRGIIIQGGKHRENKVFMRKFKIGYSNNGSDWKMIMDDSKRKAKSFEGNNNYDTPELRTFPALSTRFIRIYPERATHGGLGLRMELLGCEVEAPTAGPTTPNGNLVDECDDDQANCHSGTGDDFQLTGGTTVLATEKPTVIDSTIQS
Protocol: Inhibitory activity of urea–peptide hybrids against VEGF-A165/NRP-1 complex formation was assessed with a screening ELISA-like assay. NRP-1 was immobilized on microplate wells by simple adsorption and urea–peptide hybrids competed for NRP-1 with biotinylated VEGF-A165 (bt-VEGF-A165). The amount of receptor bound bt-VEGF-A165 was visualized by its interaction with the streptavidin–horseradish peroxidase conjugate (strep-HRP) and the chemiluminescent substrate. The first analyzed group of compounds were analogues 1–3 with the urea bond between L1 and L2. […] The best hybrid in this group was compound 3, which had Lys^U (gDab) branching (where “g” corresponds to guanidinium group), but its IC50 value decreased only 2-fold. Therefore, we assume that no additional interactions between urea bond and the surface of the protein occurred. […] In the case of urea–peptide hybrids, the urea bond might be capable of forming additional hydrogen bonds with protein residues on the surface of NRP-1. The affinity of compounds may conceivably be affected by the colocation of the urea bond and the free amino group of hArg in the branching. In addition, for compounds 4–6, we can observe that decreasing the distance between the free amino group in the main chain and the urea bond in the branching has a positive effect on compounds’ affinity for NRP-1.
This method was previously described for NRP-1 [44, 45, 46]. Briefly, overnight coating at 4 °C of the flat bottom surface of a 96-well plate with 100 μL (200 ng/well) recombinant human NRP-1, NRP-2, VEGFR-1 or VEGFR-2 was followed by non-specific interactions blocking using 0.5% bovine serum albumin (BSA) in PBS. Next, 50 µL of urea–peptide hybrid in PBS and 50 µL (400 ng/mL) of human (bt)-VEGF-A165 in PBS containing 4 µg/mL of heparin were added respectively. Plates were incubated for 2 h at RT, and then washed and treated with streptavidin-horseradish peroxidase conjugate in PBS (1:8000). Next, 100 µL chemiluminescent substrate was added, and luminescence was quantified using Tecan Infinite F200Pro microplate reader (Männedorf, Switzerland). In a positive control (P) only (bt)-VEGF-A165 was present in wells. Not coated by receptor wells were treated as a negative control (N). Percentages of inhibition were calculated by the following formula:100% − [[(S − N)/(P − N)]∙100%](1) where S is the signal intensity measured in wells with urea–peptide hybrid. The IC50 of each urea–peptide hybrid was calculated using the nonlinear regression function with GraphPad Prism Version-5.01 (GraphPad Software, San Diego, CA, USA). Data are presented as log (inhibitor) versus normalized response-variable slope (Figure S16). Data are the means ± SEMs of two or three independent experiments, each performed in triplicate.

[4] = molecular target: T1, VEGF-A165/NRP-1 complex; details: read-out: IC50, VEGF-A165/NRP-1 complex inhibitory effect, cited from earlier work
[5] = In vitro enzymatic stability in human blood serum (LC-SWATH-MS); assay type: in vitro ADME; details: pooled human blood serum, 37 °C
Protocol: Rapid renal clearance and enzymatic degradation are classified as most important disadvantages of peptides as drugs. Covalent linkage to plasma proteins or chemical modifications, including amide bond modifications, might improve their half-lives. We performed proteolytic stability studies in human blood serum to investigate whether the introduction of urea bonds affected the half-lives of compounds from each of synthesized group of hybrids. Compounds 3, 6 and 7 were incubated with human serum at 37 °C. Samples were taken at different time intervals and analyzed using LC-SWATH-MS [88, 89, 90]. […] Hybrids 6 and 7 were stable toward enzymatic degradation, with 50% of each compound still being intact after 96 h (Figure 5). […] Overall, it can be concluded that the substitution of an amide bond with a urea bond has a positive effect on the proteolytic stability of the examined inhibitors.
The study was conducted in full accordance with ethical principles in accordance with the ICH E6 (R2) Guideline for Good Clinical Practice and the Code of Good Customs in Science developed by the Polish Academy of Sciences. Signed consent for using serum was obtained from volunteers. The Rector’s Commission for Ethics of Scientific Research with Human Participation, University of Warsaw, Warsaw, Poland gave the ethical approval (approval number 51/2020). Human blood from four healthy persons was directly drawn into evacuated tubes and left undisturbed at room temperature for 1 h to clot. Tubes were centrifuged at 2500× g for 10 min to prevent possible platelet activation. Serum was pipetted out of the blood collection tubes, pooled and collected in microtubes.
A degradation assay was adapted from a method described previously. Human blood serum was preactivated in Eppendorf ThermoMixer® Comfort (Hamburg, Germany) at 37 °C for 20 min (350 rpm). Next, 20 μL of aqueous urea–peptide hybrid stock solution was added to give ∼750 μg/mL final compound concentration, and incubation was continued. At selected time intervals, 50 μL of the mixture was collected and quenched by adding 200 μL of ACN:H2O:FA mixture (89:10:1, v:v:v). The obtained suspension was vortexed for 1 min (3000 min^−1) and centrifuged for 10 min in 4 °C (11,000× g). 100 μL of supernatant was collected and lyophilized. The samples reconstituted in 1 mL of 10 mM ammonium formate with 0.1% FA were subjected to LC-MS. Relative concentration at time intervals was calculated using peak area of either individual or most intense fragment of compound of interest. Analyst software version 1.7.1 was used for data acquisition, Peak View 2.2 and MultiQuant 2.1 (Sciex, ON) were used for data processing. Detailed analytical data can be found in Supplementary Materials (Figures S17–S45). […]

pIC50 [3]: 5.39
Compound: 5/6-FAM-Dab(hArg^U)-Dab-Oic-Arg [Compound 10]
median fluorescent intensity of NRP-1 after 1 h (T60) relative to 5 min of incubation ([1]; 100 µg/mL, 37 °C): 1.5 fold | effect on NRP-1 cell surface expression ([1]; time course at 37 °C, independently of time exposure): no downmodulation of NRP-1 expression | binding on cells ([2]; 0 to 100 µg/mL, FACS): dose-dependent | median fluorescence intensity of NRP-1 staining in presence of compound ([2]; 100 μg/ml, 4 °C, 94 in its absence): 88

half-life [5]: 8 h
Compound: N=C(N)NCCCC[C@H](N)C(=O)NCCCC[C@H](N)C(=O)N[C@@H](CCN)C(=O)N1C2CCCCC2C[C@H]1C(=O)N[C@@H](CCCNC(=N)N)C(=O)O (stereo partly drawn) [PP, Lys(hArg)-Dab-Oic-Arg, reference compound] (H-K(hArg)[Dab][Oic(3aξ,7aξ)]R-OH)
pIC50 ([4]; data already published): 5.64

Compound: Lys(Arg^U)–Dab–Oic–Arg
pIC50 ([4]; earlier urea analogue): 5.26
